Measurements from ChEMBL document CHEMBL4818998, “Melatonin derivatives combat with inflammation-related cancer by targeting the Main Culprit STAT3” (Eur J Med Chem, 2021).
The source made the active and inactive calls. The calls are words filed in the database; no cut-off is given here.

Columns and labels:
[1] = Observed AUC (0 to infinity) in Sprague-Dawley rat at 100 mg/kg, ig measured for 24 hrs by LC-MS analysis; assay type: ADME, organism-based; set-up: route intragastric, time 24 hrs, dose 100 mg/kg; details: in vivo, po
HCT-116 [2] = assay: Induction of apoptosis in human HCT-116 cells assessed as viable cells at 10 uM measured after 48 hrs by Annexin V-FITC/PI staining based flow cytometry (reference value: 94.9%); assay type: functional; details: read-out: Activity
[3] = Toxicity in Kunming mouse assessed as animal survival at 1000 mg/kg, ig measured for 14 days; assay type: organism-based; details: in vivo, po, 336 h, time 14 day
HCT-116 [4] = assay: Antimetastatic activity against human HCT-116 cells assessed as inhibition of cell migration measured after 36 hrs by transwell assay; assay type: functional, cell-based; details: dose 2.5-15 µM
HCT-116 [5] = assay: Induction of apoptosis in human HCT-116 cells assessed as formation of apoptotic bodies at 2.5 to 15 uM measured after 48 hrs by Giemsa staining method; assay type: functional, cell-based; details: dose 2.5-15 µM
HCT-116 [6] = assay: Induction of apoptosis in human HCT-116 cells assessed as early apoptotic cells at 5 uM measured after 48 hrs by Annexin V-FITC/PI staining based flow cytometry (reference value: 2.14%); assay type: functional
HCT-116 [7] = assay: Induction of apoptosis in human HCT-116 cells assessed as necrotic cells at 20 uM measured after 48 hrs by Annexin V-FITC/PI staining based flow cytometry (reference value: 1.5%); assay type: functional
HCT-116 [8] = assay: Downregulation of STAT3 protein expression in human HCT-116 cells at 2.5 to 10 uM measured after 48 hrs by western blot assay; assay type: functional, cell-based; details: dose 2.5-10 µM
[9] = molecular target: Signal transducer and activator of transcription 3 (Homo sapiens) (UniProt P40763); assay: Inhibition of STAT3 in human HCT-116 cells assessed as decrease in Bcl-2 expression at 2.5 to 10 uM measured after 48 hrs by western blot assay; assay type: cell-based; details: dose 2.5-10 µM
Sequence of Signal transducer and activator of transcription 3 (Homo sapiens) (P40763 whole entry): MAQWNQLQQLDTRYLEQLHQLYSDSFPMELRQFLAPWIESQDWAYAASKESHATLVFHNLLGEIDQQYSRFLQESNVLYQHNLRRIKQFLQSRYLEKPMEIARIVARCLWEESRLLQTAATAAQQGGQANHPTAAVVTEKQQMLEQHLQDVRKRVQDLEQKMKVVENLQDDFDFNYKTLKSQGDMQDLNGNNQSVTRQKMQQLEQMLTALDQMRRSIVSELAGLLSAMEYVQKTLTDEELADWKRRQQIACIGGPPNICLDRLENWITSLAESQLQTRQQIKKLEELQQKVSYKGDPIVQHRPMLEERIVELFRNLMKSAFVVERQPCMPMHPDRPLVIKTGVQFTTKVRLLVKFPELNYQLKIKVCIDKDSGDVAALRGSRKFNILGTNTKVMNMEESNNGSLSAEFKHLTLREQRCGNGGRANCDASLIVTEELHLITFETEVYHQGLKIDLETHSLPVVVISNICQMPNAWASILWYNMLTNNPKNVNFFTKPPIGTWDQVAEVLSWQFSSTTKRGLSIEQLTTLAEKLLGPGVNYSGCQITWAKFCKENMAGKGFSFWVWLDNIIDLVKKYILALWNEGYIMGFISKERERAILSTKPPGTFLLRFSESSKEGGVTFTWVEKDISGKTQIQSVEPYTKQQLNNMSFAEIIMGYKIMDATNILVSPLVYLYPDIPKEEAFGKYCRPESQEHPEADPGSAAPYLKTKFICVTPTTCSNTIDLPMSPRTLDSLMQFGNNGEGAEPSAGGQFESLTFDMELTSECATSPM

HCT-116 [10] = assay: Induction of apoptosis in human HCT-116 cells assessed as necrotic cells at 10 uM measured after 48 hrs by Annexin V-FITC/PI staining based flow cytometry (reference value: 1.5%); assay type: functional
[11] = Cytotoxicity against LPS-stimulated mouse RAW264.7 cells assessed as cell viability at 5 to 20 microM measured after 24 hrs; assay type: cell-based; details: LPS-stimulated RAW264.7 cells, dose 5-20 µM, read-out: Activity
[12] = Tmax in Sprague-Dawley rat at 100 mg/kg, ig measured for 24 hrs by LC-MS analysis; assay type: ADME, organism-based; details: in vivo, po
RAW264.7 [13] = assay: Anti-inflammatory activity against mouse RAW264.7 cells assessed as decrease in LPS-induced TNF-alpha secretion measured after 24 hrs by ELISA; assay type: functional, cell-based; details: dose 5-20 µM
MGC-803 [14] = assay: Inhibition of clonogenicity in human MGC-803 cells assessed as reduction in colony formation measured after 6 days by crystal violet staining based analysis; assay type: functional, cell-based; details: dose 2-16 µM, time 6.0 day
RAW264.7 [15] = assay: Anti-inflammatory activity against mouse RAW264.7 cells assessed as decrease in LPS-induced IL-6 secretion measured after 24 hrs by ELISA; assay type: functional, cell-based; details: dose 5-20 µM
HCT-116 [16] = assay: Induction of apoptosis in human HCT-116 cells assessed as plasmatorrhexis at 2.5 to 15 uM measured after 48 hrs by Giemsa staining method; assay type: functional, cell-based; details: dose 2.5-15 µM
[17] = AUC (0 to t) in Sprague-Dawley rat at 100 mg/kg, ig measured for 24 hrs by LC-MS analysis; assay type: ADME, organism-based; set-up: time 24 hrs, dose 100 mg/kg; details: in vivo, po
[18] = molecular target: Signal transducer and activator of transcription 3 (Homo sapiens) (UniProt P40763); assay: Inhibition of STAT3 in human HCT-116 cells assessed as inhibition of nuclear translocation of STAT3 at 10 uM measured after 3 hrs by Hoechst/fluorochrome-conjugated antibody staining based confocal laser microscopy; assay type: cell-based
HCT-116 [19] = assay: Induction of apoptosis in human HCT-116 cells assessed as downregulation of cytochrome C expression at 2.5 to 10 uM measured after 48 hrs by western blot assay; assay type: functional, cell-based; details: dose 2.5-10 µM
HCT-116 [20] = assay: Induction of apoptosis in human HCT-116 cells assessed as late apoptotic cells at 5 uM measured after 48 hrs by Annexin V-FITC/PI staining based flow cytometry (reference value: 1.42%); assay type: functional
HCT-116 [21] = assay: Induction of apoptosis in human HCT-116 cells assessed as late apoptotic cells at 10 uM measured after 48 hrs by Annexin V-FITC/PI staining based flow cytometry (reference value: 1.42%); assay type: functional
HCT-116 [22] = assay: Induction of apoptosis in human HCT-116 cells assessed as early apoptotic cells at 2.5 uM measured after 48 hrs by Annexin V-FITC/PI staining based flow cytometry assay (reference value: 2.14%); assay type: functional
MGC-803 [23] = assay: Cytotoxicity against human MGC-803 cells assessed as reduction in cell viability at <20 uM measured after 24 hrs by CCK8 assay; assay type: cell-based; details: mgc-803, 24 h
[24] = Toxicity in Kunming mouse assessed as animal activity at 1000 mg/kg, ig measured for 14 days; assay type: organism-based; details: in vivo, po, 336 h, time 14 day
HCT-116 [25] = assay: Induction of apoptosis in human HCT-116 cells assessed as viable cells at 5 uM measured after 48 hrs by Annexin V-FITC/PI staining based flow cytometry (reference value: 94.9%); assay type: functional; details: read-out: Activity
AGS = assay: Antiproliferative activity against human AGS cells assessed as inhibition of cell proliferation measured after 72 hrs by MTT assay; assay type: functional, cell-based
HCT-116 [26] = assay: Induction of apoptosis in human HCT-116 cells assessed as early apoptotic cells at 10 uM measured after 48 hrs by Annexin V-FITC/PI staining based flow cytometry (reference value: 2.14%); assay type: functional
MGC-803 [27] = assay: Cytotoxicity against human MGC-803 cells assessed as reduction in cell viability at <=10 uM measured after 48 hrs by CCK8 assay; assay type: cell-based; details: mgc-803, 48 h
[28] = Observed apparent oral clearance in Sprague-Dawley rat at 100 mg/kg measured for 24 hrs by LC-MS analysis; assay type: ADME, organism-based; details: in vivo
HepG2 = assay: Antiproliferative activity against human HepG2 cells assessed as inhibition of cell proliferation measured after 72 hrs by MTT assay; assay type: functional, cell-based; details: HepG2, 72 h
[29] = Cmax in Sprague-Dawley rat at 100 mg/kg, ig measured for 24 hrs by LC-MS analysis; assay type: ADME, organism-based; set-up: route intragastric, time 24 hrs, dose 100 mg/kg; details: in vivo, po
MGC-803 [30] = assay: Induction of apoptosis in human MGC-803 cells at 2.5 to 20 uM measured after 48 hrs by Annexin V-FITC/PI staining based flow cytometry; assay type: functional, cell-based; details: dose 2.5-20 µM
MGC-803 [31] = assay: Antiproliferative activity against human MGC-803 cells assessed as inhibition of cell proliferation measured after 72 hrs by MTT assay; assay type: functional, cell-based; details: MGC-803, 72 h
HCT-116 [32] = assay: Antiproliferative activity against human HCT-116 cells assessed as inhibition of cell proliferation measured after 72 hrs by MTT assay; assay type: functional, cell-based; details: HCT-116, 72 h
[33] = Ratio of AUC (0 to t) to observed AUC (0 to infinity) in Sprague-Dawley rat at 100 mg/kg, ig measured for 24 hrs by LC-MS analysis; assay type: ADME, organism-based; details: in vivo, po

**Q.** What does the source list for `Cc1c(Cl)cccc1Nc1ccccc1C(=O)NCCc1c[nH]c2ccccc12`?
**A.** AUC(0-inf) [1]: 1930 ng·h/mL; viability at 10 µM (HCT-116 [2]): 58.5%; Activity [3]: Non-Toxic; Activity (HCT-116 [4]): Dose-Dependent Effect; Activity (HCT-116 [5]): Active; Activity (HCT-116 [6]): 5.44%; Activity (HCT-116 [7]): 2.62%; inhibition (HCT-116 [8]): Active; inhibition [9]: Active; Activity (HCT-116 [10]): 2.42%; viability at 24 h [11]: > 80%; Tmax [12]: 1 h; Activity (RAW264.7 [13]): Dose-Dependent Effect; inhibition (MGC-803 [14]): Dose-Dependent Effect; Activity (RAW264.7 [15]): Dose-Dependent Effect; Activity (HCT-116 [16]): Active; AUC(0-t) at 24 h [17]: 1670 ng·h/mL; inhibition [18]: Active; Activity (HCT-116 [19]): Active; Activity (HCT-116 [20]): 3.94%; Activity (HCT-116 [21]): 6.12%; Activity (HCT-116 [22]): 3.48%; Activity (MGC-803 [23]): Non-Toxic; Activity [24]: Non-Toxic; viability at 5 µM (HCT-116 [25]): 87.8%; IC50 (AGS): 9.12 µM; Activity (HCT-116 [26]): 33%; Activity (MGC-803 [27]): Non-Toxic; CL/F [28]: 51.75 (mg/kg)/(microg/ml)/hr; IC50 (HepG2): 7.37 µM; Cmax [29]: 150 ng/mL; Activity (MGC-803 [30]): inactive; IC50 (MGC-803 [31]): 9.96 µM; IC50 (HCT-116 [32]): 8.42 µM; Ratio AUC [33]: 0.87
